Measured values taken from the supplement of paper PMC10307832.

Assays:
Experiment in all cases: relative viability (nuclei count vs DMSO), 5 days (fraction); higher = more cells survive
[1] = compound: C1CSC2=C(C(=O)N1)SC3=C2C=C(C=C3)O [kb NB 142-70] + CC(C)C[C@H](NC(=O)[C@H](Cc1ccccc1)NC(=O)c1cnccn1)B(O)O [Bortezomib] (partner 0.002 µM)
Method in brief: (§1)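 Medians of duplicate plates are given as relative viability. That measure is the nuclei count in treated wells divided by the count in vehicle wells. Counts were taken on 4× images of lung cancer cell lines in 1536-well plates, 5 days after pin-tool dosing the day after seeding with one drug alone or a fixed anchor-drug dose plus five library-drug doses (not always all listed) in √10 steps.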

kb NB 142-70 + OSI-027 = compound: C1CSC2=C(C(=O)N1)SC3=C2C=C(C=C3)O [kb NB 142-70] + COc1cccc2cc(-c3nc([C@H]4CC[C@H](C(=O)O)CC4)n4ncnc(N)c34)[nH]c12 [OSI-027] (partner 0.5 µM)
Method in brief: as §1

[2] = compound: C1CSC2=C(C(=O)N1)SC3=C2C=C(C=C3)O [kb NB 142-70] + CS(=O)(=O)N1CCN(Cc2cc3nc(-c4cccc5[nH]ncc45)nc(N4CCOCC4)c3s2)CC1 [Pictilisib] (partner 1 µM)
Method in brief: as §1

kb NB 142-70 + Olaparib = compound: C1CSC2=C(C(=O)N1)SC3=C2C=C(C=C3)O [kb NB 142-70] + O=C(c1cc(Cc2n[nH]c(=O)c3ccccc23)ccc1F)N1CCN(C(=O)C2CC2)CC1 [Olaparib] (partner 8 µM)
Method in brief: as §1

[3] = compound: NCC(=O)Nc1ccc(-n2nc(C(F)(F)F)cc2-c2ccc3c(ccc4ccccc43)c2)cc1 + Cc1nc(Nc2ncc(C(=O)Nc3c(C)cccc3Cl)s2)cc(N2CCN(CCO)CC2)n1 [Dasatinib] (partner 0.075 µM)
Method in brief: as §1

Cell Line | relative viability ([1]; first compound 0.1 µM) | relative viability ([1]; first compound 1 µM) | relative viability ([1]; first compound 3.162 µM) | relative viability (kb NB 142-70 + OSI-027; first compound 0.1 µM) | relative viability (kb NB 142-70 + OSI-027; first compound 1 µM) | relative viability (kb NB 142-70 + OSI-027; first compound 3.162 µM) | relative viability ([2]; first compound 0.1 µM) | relative viability ([2]; first compound 1 µM) | relative viability ([2]; first compound 3.162 µM) | relative viability (kb NB 142-70 + Olaparib; first compound 0.1 µM) | relative viability (kb NB 142-70 + Olaparib; first compound 1 µM) | relative viability (kb NB 142-70 + Olaparib; first compound 3.162 µM) | relative viability ([3]; first compound 0.02 µM) | relative viability ([3]; first compound 0.06325 µM) | relative viability ([3]; first compound 0.2 µM) | relative viability ([3]; first compound 0.6325 µM) | relative viability ([3]; first compound 2 µM)
201T | 1.09 | 1.17 | 1.11 | 0.723 | 0.714 | 0.653 | 0.683 | 0.649 | 0.698 | 0.828 | 0.87 | 0.85 | 0.518 | 0.571 | 0.56 | 0.53 | 0.542
A549 |  |  |  |  |  |  | 0.474 | 0.498 | 0.114 | 0.305 | 0.363 | 0.155 |  |  |  |  | 
A-427 | 1.01 | 1.05 | 1.01 | 0.524 | 0.469 | 0.408 | 0.816 | 0.753 | 0.748 | 0.747 | 0.77 | 0.52 |  | 0.692 | 0.724 | 0.682 | 0.672
ABC-1 | 0.373 | 0.278 | 0.239 | 0.481 | 0.506 | 0.346 | 0.757 | 0.879 | 0.381 | 0.712 | 0.746 | 0.427 | 0.613 | 0.602 |  | 0.59 | 0.49
BEN | 0.942 | 0.669 | 0.418 | 0.306 | 0.301 | 0.202 | 0.561 | 0.527 | 0.405 | 1.09 | 1.21 | 1.01 | 0.283 | 0.332 | 0.244 | 0.333 | 0.304
CAL-12T | 1.01 | 1.04 | 0.819 | 0.857 | 0.719 | 0.444 | 0.563 | 0.451 | 0.344 | 0.7 | 0.691 | 0.677 | 0.494 | 0.691 | 0.454 | 0.425 | 0.495
COR-L23 | 0.872 | 0.913 | 0.51 | 0.797 | 0.728 | 0.279 | 0.765 | 0.807 | 0.251 | 0.344 | 0.442 | 0.263 | 0.481 | 0.504 | 0.566 | 0.481 | 0.531
COR-L 105 | 0.871 | 0.828 | 0.903 | 0.821 | 0.734 | 0.674 | 0.376 | 0.392 | 0.37 | 0.82 | 0.637 | 0.726 | 0.388 | 0.426 | 0.362 | 0.418 | 0.413
Calu-6 | 1.01 | 0.946 | 0.62 |  |  |  | 0.873 | 0.805 | 0.457 | 0.589 | 0.457 | 0.287 |  |  |  |  | 
ChaGo-K-1 | 1.06 | 1.1 | 0.951 | 0.631 | 0.543 | 0.488 | 0.894 | 0.807 | 0.523 | 0.489 | 0.361 | 0.362 | 0.53 | 0.604 | 0.47 | 0.646 | 0.579
EBC-1 | 0.592 | 0.546 | 0.358 |  |  |  | 0.369 | 0.398 | 0.265 | 0.775 | 0.587 | 0.385 |  |  |  |  | 
EKVX | 0.994 | 1.05 | 0.993 | 0.707 | 0.675 | 0.788 | 0.413 | 0.465 | 0.438 | 0.853 | 0.88 | 0.984 | 0.554 | 0.6 | 0.648 | 0.527 | 0.488
EMC-BAC-2 | 1.08 | 1.07 | 0.812 | 0.361 | 0.422 | 0.338 | 0.581 | 0.562 | 0.431 | 0.531 | 0.505 | 0.384 | 0.316 | 0.286 | 0.325 | 0.377 | 0.338
EPLC-272H | 0.926 | 1.06 | 0.72 | 0.278 | 0.243 | 0.187 | 0.349 | 0.325 | 0.237 | 0.761 | 0.481 | 0.121 | 0.35 | 0.406 | 0.351 | 0.357 | 0.671
H3255 | 0.822 | 0.7 | 0.822 | 0.606 | 0.603 | 0.554 | 0.469 | 0.45 | 0.437 | 0.559 | 0.577 | 0.604 | 0.477 | 0.343 | 0.348 | 0.337 | 0.347
HARA | 1.15 | 1.06 | 0.964 | 0.57 | 0.479 | 0.234 | 0.476 | 0.372 | 0.381 | 0.873 | 0.602 | 0.547 | 0.227 | 0.241 | 0.233 | 0.256 | 0.296
HCC-15 | 0.972 | 1.1 | 1.1 | 0.698 | 0.703 | 0.516 | 0.746 | 0.79 | 0.56 | 0.722 | 0.748 | 0.752 | 0.619 | 0.709 | 0.651 | 0.632 | 0.673
HCC-44 | 0.952 | 0.94 | 0.899 | 0.701 | 0.439 | 0.685 | 0.566 | 0.622 | 0.646 | 0.945 | 0.981 | 0.974 |  |  |  |  | 
HCC-78 | 0.486 | 0.543 | 0.556 | 0.379 | 0.375 | 0.34 | 0.213 | 0.216 | 0.181 | 0.791 | 0.773 | 0.83 | 0.466 | 0.432 | 0.357 | 0.425 | 0.429
HCC-366 | 1.07 | 0.926 | 1.12 | 1.04 | 0.894 | 0.742 | 0.13 | 0.127 | 0.092 | 0.371 | 0.509 | 0.443 | 0.659 | 0.644 | 0.615 | 0.621 | 0.624
